Results published in the NIST ThermoML archive (doi:10.1016/j.jct.2005.07.019).
Numbers after ± are expanded uncertainties.

Experiment: mn = molality of the nth substance listed, in mol/kg
Conditions: 350 kPa, Liquid, Extra sensitive DSC

N[C@H](CO)C(=O)O [(R)-(-)-serine] + O
apparent molar heat capacity [J/K/mol]
Conditions	m1 = 0.0151	m1 = 0.0301	m1 = 0.0501	m1 = 0.08	m1 = 0.1251	m1 = 0.2505	m1 = 0.35
278.15 K	54.5 ± 51	55.7 ± 26	56.5 ± 16	58.3 ± 9.8	60.7 ± 6.3	66.74 ± 3.4	71.19 ± 2.6
283.15 K	75.2 ± 52	76.1 ± 26	76.8 ± 16	78.4 ± 9.9	80.6 ± 6.4	85.06 ± 3.4	89.13 ± 2.6
288.15 K	91.1 ± 52	92.2 ± 26	92.8 ± 16	94.4 ± 9.9	96.3 ± 6.4	100.09 ± 3.4	103.68 ± 2.7
293.15 K	104.3 ± 52	105.4 ± 26	106.1 ± 16	107.6 ± 9.9	109.2 ± 6.5	112.47 ± 3.5	115.73 ± 2.7
298.15 K	114.8 ± 52	116.1 ± 26	116.8 ± 16	118.3 ± 10	119.8 ± 6.5	122.69 ± 3.5	125.65 ± 2.7
303.15 K	123.8 ± 52	125.6 ± 26	126.3 ± 16	127.5 ± 10	128.8 ± 6.5	131.45 ± 3.5	134.16 ± 2.7
308.15 K	132.3 ± 52	133.5 ± 26	134.1 ± 16	135.4 ± 10	136.6 ± 6.5	138.97 ± 3.6	141.5 ± 2.8
313.15 K	139.7 ± 52	140.5 ± 26	141 ± 16	142.1 ± 10	143.3 ± 6.6	145.58 ± 3.6	147.86 ± 2.8
318.15 K	145.3 ± 52	146.2 ± 26	146.7 ± 16	147.9 ± 10	149 ± 6.7	151.1 ± 3.7	153.28 ± 2.9
323.15 K	150 ± 52	151.2 ± 26	151.8 ± 16	153 ± 10	154.1 ± 6.7	156.06 ± 3.7	158.13 ± 2.9
328.15 K	155 ± 52	156 ± 26	156.5 ± 16	157.5 ± 10	158.6 ± 6.8	160.5 ± 3.7	162.4 ± 2.9
333.15 K	159 ± 52	160.2 ± 27	160.7 ± 16	161.7 ± 10	162.6 ± 6.9	164.4 ± 3.9	166.3 ± 3
338.15 K	163 ± 53	163.7 ± 27	164.2 ± 16	165.2 ± 11	166.2 ± 7	167.9 ± 3.9	169.76 ± 3
343.15 K	166 ± 54	167 ± 27	167.4 ± 17	168.3 ± 11	169.2 ± 7.1	170.9 ± 4	172.7 ± 3.1
348.15 K	169 ± 54	170.1 ± 28	170.4 ± 17	171.1 ± 11	172 ± 7.2	173.7 ± 4	175.4 ± 3.1
353.15 K	171 ± 55	172.2 ± 28	172.6 ± 17	173.6 ± 11	174.4 ± 7.3	176.1 ± 4	177.8 ± 3.1
358.15 K	174 ± 56	174.3 ± 28	174.9 ± 17	175.8 ± 11	176.7 ± 7.4	178.3 ± 4.1	180 ± 3.3
363.15 K	176 ± 57	176.2 ± 29	176.7 ± 18	177.7 ± 11	178.5 ± 7.5	180.2 ± 4.1	181.8 ± 3.3
368.15 K	177 ± 57	177.8 ± 29	178.2 ± 18	179.2 ± 12	180.1 ± 7.6	181.7 ± 4.3	183.4 ± 3.3
373.15 K	178 ± 58	179.3 ± 30	179.6 ± 18	180.5 ± 12	181.4 ± 7.7	183.1 ± 4.3	184.7 ± 3.4
378.15 K	180 ± 59	180.4 ± 30	180.7 ± 18	181.6 ± 12	182.5 ± 7.8	184.2 ± 4.4	185.8 ± 3.4
383.15 K	181 ± 61	181 ± 31	181.4 ± 19	182.4 ± 12	183.3 ± 8	185.2 ± 4.4	186.8 ± 3.4
388.15 K	181 ± 62	182 ± 31	182.1 ± 19	183 ± 12	184 ± 8.1	186 ± 4.5	187.4 ± 3.6
393.15 K	182 ± 62	182 ± 31	182.5 ± 19	183.5 ± 12	184.4 ± 8.2	186.5 ± 4.5	187.9 ± 3.6
